Source: US20240148745A1, “COMPOUNDS FOR USE IN PROGRESSIVE MULTIPLE SCLEROSIS” (FONDAZIONE CENTRO SAN RAFFAELE, priority 2021, published 2024)
Like-named read-outs stand apart in the source and are kept apart here.

Assays:
rat primary OPC cultures = experiment: Differentiation of rat primary OPC into MBP+ OLs; format: cell-based; conditions: 96 h, 4 days of differentiation, read-out: MBP+ differentiation (MBP+/SOX10+ OLs plus compounds / plus basal medium)
Protocol: Secondary validation on primary rat OPC differentiation. Re-validation of the best performing compounds promoting OPC differentiation (fold change >1.5) was performed on primary rat OPC cultures in 96 well-plate run in triplicates by triple immunolabeling for CNPase, MBP and SOX10 as a readout. Compounds at […] were added for 4 days of differentiation and then cell cultures were imaged with ArrayScanXTI platform, number of MBP+OLs were quantified by semi-automated software. Basal medium served as a negative control, 9 cis-RA ([…]) was a positive control.
Re-validation of the 49 compounds selected from the short list (160 compounds) using rat primary OPC cultures (compounds tested in triplicates in 3 independent experiments. The secondary validation screen of these compounds performed on rat primary OPC cultures selected 17 best lead compounds with a pro-differentiation activity (MBP+/SOX10+OLs plus compounds/MBP+SOX10+ plus basal medium fold increase) induced a strong differentiation into MBP+OLs (fold increase >1.6). Results are shown in FIG. 7.

[1] = tested on: iPSC-derived neurons (DIV45)
Protocol: This protocol was modified from Yuchen Qi et al.^32 First, neural progenitors (NPCs) were generated from hiPSCs by dual-SMAD inhibition. Shortly, at day 0 iPSC colonies (confluent at 70-80%) were washed with PBS Dulbecco's w/o Calcium w/o Magnesium (Euroclone) and hiPSCs' maintenance medium (mTeSR™, StemCell Technologies) was replaced with neural induction medium composed by DMEM/F12 plus N2 medium (1×), B27 without RA supplement (0.5×) (Life Technology), added with SB431542 (10 μM) and LDN (500 nM). This medium was kept until day 4 (“induction”). At day 4, cells were splitted (1:3) with the same induction medium using Accutase®/Accumax™ (StemCell Technologies) dissociated solution. Entire medium was replaced daily up to days 14-16 until rosette formation was observed (“patterning”). At days 14-16, cells were detached by Accutase®/Accumax™ and re-plated on polyornitine/laminin/fibronectin coated MW96 or MW24 plates for terminal differentiation in Neurobasal medium supplemented with B27 (0.5×), BDNF (20 ng/ml), dbcAMP (500 μM), ascorbic acid (200 μM), PD0325901 (1 μM), SU5402 (5 μM), CHIR (3 μM), human recombinant insulin (5 μg/ml), supplemented with RI (Rock inhibitor) (1:3000) to reduce dissociation induced apoptosis. The half of differentiation medium was changed every 3-4 days, supplemented with 1 μg/ml laminin and DAPT (1-2 μM) until terminal maturation of neuronal population (MAP2+ cells). Cultures were characterized by immunocytochemistry and qRT-PCR and neuroprotective experiments were performed on days 30-40 of differentiation.
Evaluation of cytotoxicity of 160 selected compounds on iPSC-derived neurons (DIV45).

[2] = tested on: rat oligodendrocyte progenitor CG4 line; experiment: Differentiation assay on rat oligodendrocyte progenitor CG4 line (HCS, mCherry+); format: cell-based; conditions: secondary screen of 49 selected compounds, 1 μM, 5 days
Procedure, shortened: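 Double-reporter CG4 cells (mCherry in mature oligodendrocytes, EGFP in all lineage stages) proliferated 24 h, then given compounds at 1 μM for 5 days of differentiation, ⅔ medium changed at day 3. 9cis-RA as positive control, basal medium and 0.1% DMSO as negative; triplicates imaged by HCS, 35 fields/well.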

[3] = tested on: murine cortical neurons (14 DIV); experiment: NMDA-mediated neuroprotective assay (CCK8 viability); format: cell-based, mouse; conditions: 1 μM, 3 h pre-treatment, NMDA 8 μM 24 h, p<0.05
Protocol: To assess neuroprotective activity of 160 selected non-toxic compounds on primary murine cortical neurons, obtained as described in the previous paragraph, ([…]), cultures were pre-treated with 1 μM compounds for either 3 or 24 hours, followed by 24 hours chronic stimulation with NMDA (8 μM) to induce neuronal damage. Each test plate included: a negative control (untreated), vehicle-treated control (0.02% vol/vol DMSO), a positive neurotoxic control—staurosporine 0.1 μM, a stressor—NMDA 8 μM, a positive neuroprotective control—NAC 300 μM, and a combination of stressor +neuroprotective molecule (NMDA+NAC). Cell viability was measured with Cell Counting Kit-8 assay compared to NMDA-treated control.
The potential neuroprotective activity of 160 selected non-toxic compounds was evaluated on murine cortical neurons (14 DIV) with either 3 h (FIG. 13) or 24 h compounds pre-treatment (FIG. 14). In assay with 3 h pre-treatment, 17 compounds were identified as potential NMDA-neuroprotective hits (marked with black asterisk in FIG. 13, stat. significant at p<0.05, Kruskal-Wallis test with post-hoc two-stage linear step-up procedure of Benjamini, Krieger and Yekutieli multiple comparison correction).

mouse cortical neurons = experiment: Morphological integrity evaluation, NMDA 8 μM (MAP2 neurite length and branching); format: cell-based; conditions: 3 h pre-treatment, NMDA 8 μM 24 h; Z>0.5 criteria
Protocol: Apart of viability/metabolic readout in NMDA-mediated neurotoxicity assay, a neuronal structural integrity was evaluated by MAP2 staining. Mouse cortical neurons (14 DIV) cultured in MW96 plates were fixed with 4% paraformaldehyde (PFA). Fixed cells were incubated with blocking solution (PBS 1×, donkey serum 5%, Triton 0.1%) for 1-hour, primary antibody (rabbit α-MAP2, 1:250, Millipore) was applied in the same solution overnight at +4° C. […] Nuclei were stained with 4′-6-diamidino-2-phenylindole (DAPI, Roche). Microscopy was performed using ArrayScan™XTI (ThermoFisher) imaging platform. 15 images per well were acquired and analyzed by CellProfiler. Total neurite length and the total number of non-trunk branches were analyzed. Total neurite length and the total number of branching were evaluated from 15 images/well, each compound or control was tested in triplicates. The total neurite length and total number of branches were converted to a standardized Z-score using formula: Xij=((Xij−μ)/σ), where xij is the raw measurement of the compound located in well (i, j), and μ and σ are, respectively, the mean and the standard deviation of all measurements of the plate.^31
The morphological integrity of mouse cortical neurons upon chronic 24 h NMDA (8 μM) exposure with compounds pre-treatment (3 h) in preventive regimen was evaluated. Control (basal), DMSO, N-acetylcysteine (NAC) served as positive controls, while staurosporine and NMDA were negative controls.

[4] = tested on: iPSC-derived glutamatergic neurons; experiment: ROS (tBuOOH)-mediated neuroprotective assay on hNeu; format: cell-based, human; conditions: control line CTR4, 1 μM, p<0.05
Protocol: Neuroprotective experiments were performed using iPSC-derived glutamatergic neurons from 3 healthy controls cultured for 30-40 DIV. Cells were pre-treated for 24 h with […] of compounds, vehicle (DMSO) or 5 nM Mito-Q (mitoquinone) served as a positive control. On the next day cells were incubated for 2 h with 100 µM of tert-butyl peroxide (tBuOOH, Sigma), then the medium was replaced and the viability readout by CCK8 viability assay kit (Dojindo) was performed on the following day. The cell viability was expressed as normalized Z score and compared to tBuOOH-treated cells with nonparametric Kruskal-Wallis test with Dunn's multiple comparisons correction.
32 “Front runners” and 7 compounds from short list were tested on iPSC-derived neurons from three control lines in ROS-mediated assay to evaluate a neuroprotective potential of selected compounds. Three independent experiments were performed for CTR4 and CTR8, FIG. 20 (A, C), while two independent experiments were performed for CTR7, FIG. 20 (B).

[5] = tested on: human iPS-derived neuroprecursors; experiment: Differentiation of human iPS-derived neuroprecursors into MBP+ oligodendrocytes; format: cell-based; conditions: 1 μM in minimal medium, p<0.05
Description: NPC bearing a doxycycline inducible polycistronic construct containing SOX10, OLIG2 and NKX6.2^29 in a human safe harbor (passages 10 to 25) were singularized on day −3 by treatment with Accutase and plated on Matrigel-coated 12-well plates at a density of 100.000 cells per well in N2B27-medium containing equal parts of neurobasal (Invitrogen) and DMEM-F12 medium (Invitrogen) with 1:100 B27 supplement lacking vitamin A (Invitrogen), 1:200 N2 supplement (Invitrogen), 1% penicillin/streptomycin/glutamine (PSG), 3 μM CHIR99021 (Axon Medchem), 150 μM ascorbic acid and 0.5 μM SAG. The next day medium was changed to N2B27-medium containing 1 μg/ml doxycycline. On DO medium was changed to glial-induction medium (GIM) consisting of DMEM-F12 with 1:100 B27 supplement lacking vitamin A, 1:200 N2 supplement, 1% PSG, 1 μM SAG, 10 ng/mL NT3 (Peprotech), 10 ng/mL IGF-I (Peprotech), 200 μM AA (Sigma), 1:1000 Trace Elements B (Corning). For full medium conditions 10 ng/ml T3 was added. On Day 2 medium was changed to glial-differentiation medium (GDM) comprising DMEM-F12 with 1:100 B27 supplement lacking vitamin A, 1:200 N2 supplement, 1% PSG, 100 μM dbCAMP (Sigma), 100 μM AA, 1:1000. For full medium conditions 60 ng/mL T3, Trace Elements B 10 ng/mL, IGF-I, 10 ng/mL and NT3 were added to the culture. GDM was changed every other day. On day 7 cells were detached by treatment with Accutase and re-plated on laminin coated 48-well plates at densities of 10.000-12.000 cells per well. After 24 h cells were treated in minimal medium with either vehicle alone [0.01% (vol/vol) DMSO] as a negative control, 60 ng/mL T3 as a positive control, or with a drug candidate dissolved in DMSO. Medium was changed every other day. On D16 doxycycline was removed from the medium. Cells were fixed on D21 and analyzed via immunocytochemistry.
Immunocytochemistry. Cells were initially fixed with 4% PFA treatment for 20 min, RT. Following three washes with PBS cells were incubated with blocking solution containing 5% normal goat serum (NGS) and 5% FCS (fetal calf serum) in PBS for 30 min at RT to prevent unspecific binding of the antibodies. To detect intracellular antigens cells were permeabilized by adding 0.5% Triton X-100 to the Blocking-solution. Cells treated with Triton X-100 were washed three times with PBS each time for 5 min at RT. Primary antibodies (rat anti-MBP,1:50, Abcam, AB7349) were applied overnight, 4° C., in blocking solution. The next day cells were washed 3 times with PBS at RT, and afterwards incubated with secondary antibodies (AF488 Alexa Fluor anti-rat (goat), 1:500, Jackson/Dianova, #112-545-167) diluted in PBS for 1 h at RT. Secondary antibodies were subsequently removed by washing 3 times with PBS. Afterwards PBS containing a Dapi staining for nuclei was added for 5 minutes and afterwards washed off with PBS. Cells were kept at 4° C. until imaging.
Imaging and evaluation. From each condition (triplicates) 20-30 pictures were taken randomly chosen by the Dapi-signal. Cell numbers were determined by using an ImageJ Macro to count the nuclei whereas MBP positive cells were subsequently counted manually in black and white images.
The effect on oligodendroglial differentiation of 32 compounds (“Front runners”) was tested. Induced pluripotent stem cells in which the transcription factors SOX10, OLIG2, NKX6.2 were inserted in a doxycycline inducible manner into a human safe harbor were differentiated into neural stem cells. Differentiation into oligodendrocytes was induced by addition of doxycycline. Cells were cultured either in a minimal medium (MM) (negative control) or in MM with the different compounds at a concentration of 1 μM. Addition of T3 to the minimal medium served as a positive control.

Row | Structure (SMILES) | viability compared to DMSO ([1]; human) | CG4 differentiation compared with 9cis-RA positive control [2] | neuroprotection of viability/metabolic activity against NMDA [3] | other results
1 | Cc1c(Cc2ccc3ccccc3n2)c2cc(F)ccc2n1CC(=O)O [0C000459, TIMAPIPRANT] | 65-80% | promoting differentiation significantly higher than 9cis-RA positive control | hit compounds | fold induction at 1 µM (rat primary OPC cultures): > 1.6
2 | CNCc1ccc(C)c(NC(=O)c2ccc(Nc3nc(-c4ccccc4)c4ccccc4n3)cc2)c1 [BMS-833923] | 65-80% | promoting differentiation significantly higher than 9cis-RA positive control | – | –
3 | Cc1nc(C#Cc2ccnc(Cl)c2)c(C)n1-c1ccc(F)cc1 [Basimglurant] | 65-80% | – | – | preservation of neurite length and network integrity (branching) (mouse cortical neurons): preserved both neurite length and the network integrity (branching)
4 | OC1CCC(Nc2nc(-c3ccccc3)nc3[nH]ccc23)CC1 (centres unmarked) [Derenofylline] | 65-80% | – | – | –
5 | Oc1ccc([C@H]2COc3cc(O)ccc3C2)cc1 [Equol] | – | promoting differentiation significantly higher than 9cis-RA positive control | – | protection from tBuOOH insult [4]: protected from tBuOOH insult
6 | CNC(=O)c1ccc(Oc2ccc3c(c2)CCN(C2CCC2)CC3)nc1 [GSK189254] | – | promoting differentiation significantly higher than 9cis-RA positive control | hit compounds | differentiation into MBP+ oligodendrocytes [5]: promote significantly (p<0.05) the differentiation into MBP+ oligodendrocytes; differentiation into MBP+ oligodendrocytes ([5]; listed as Gsk189254): promote significantly the differentiation into MBP+ oligodendrocytes; protection from tBuOOH insult [4]: protected from tBuOOH insult
7 | CCn1c(=O)c2c(nc(/C=C/c3ccc(OC)c(OC)c3)n2C)n(CC)c1=O [Istradefylline] | 65-80% | – | – | –
8 | CC[C@@H](Oc1cccc(CN(CCCOc2ccc(OC)cc2)c2nc3ccccc3o2)c1)C(=O)O [K-877 Pemafibrate] | – | – | – | viability compared to DMSO [1]: 65-80%
9 | CC1(C)CC(C)(C)CC(C)(N)C1 [Neramexane] | – | promoting differentiation significantly higher than 9cis-RA positive control | hit compounds | viability compared to DMSO [1]: 65-80%; preservation of neurite length and network integrity (branching) (mouse cortical neurons): preserved both neurite length and the network integrity (branching)
10 | COc1cccc(OC)c1-c1cc(C(=O)NC2(C(=O)O)C3CC4CC(C3)CC2C4)nn1-c1ccnc2cc(Cl)ccc12 (centres unmarked) [Reminertant] | 65-80% | – | – | –
